Where two headings read alike, the source gives them in different places.
Experiments:
[1] = system: MOLT-4 (Leukemia); test: NCI-60 screen (SRB, 48 h); settings: Homo sapiens
[2] = system: HOP-92 (NSC lung cancer); test: NCI-60 screen (SRB, 48 h); settings: Homo sapiens
[3] = system: T-47D (Breast cancer); test: NCI-60 screen (SRB, 48 h); settings: Homo sapiens, T47D
[4] = system: Colon Cancer subpanel; test: NCI-60 screen, subpanel; settings: Homo sapiens
[5] = system: UO-31 (Renal cancer); test: NCI-60 screen (SRB, 48 h); settings: Homo sapiens
[6] = system: OVCAR-5 (Ovarian cancer); test: NCI-60 screen (SRB, 48 h); settings: Homo sapiens
[7] = system: DU-145 (Prostate cancer); test: NCI-60 screen (SRB, 48 h); settings: Homo sapiens
[8] = system: SW-620 (Colon cancer); test: NCI-60 screen (SRB, 48 h); settings: Homo sapiens
[9] = system: NCI-H322M (NSC lung cancer); test: NCI-60 screen (SRB, 48 h); settings: Homo sapiens
[10] = system: Ovarian Cancer subpanel; test: NCI-60 screen, subpanel; settings: Homo sapiens
[11] = system: SNB-75 (CNS cancer); test: NCI-60 screen (SRB, 48 h); settings: Homo sapiens
[12] = system: OVCAR-3 (Ovarian cancer); test: cells; settings: Homo sapiens
[13] = system: CNS cancer subpanel; test: NCI-60 screen, subpanel; settings: Homo sapiens
[14] = system: M14 (Melanoma); test: NCI-60 screen (SRB, 48 h)
[15] = system: SK-MEL-28 (Melanoma); test: NCI-60 screen (SRB, 48 h)
[16] = system: CCRF-CEM (Leukemia); test: NCI-60 screen (SRB, 48 h); settings: Homo sapiens
[17] = system: HT29 (Colon cancer); test: NCI-60 screen (SRB, 48 h); settings: Homo sapiens
[18] = system: A498 (Renal cancer); test: NCI-60 screen (SRB, 48 h); settings: Homo sapiens
[19] = system: SK-OV-3 (Ovarian cancer); test: NCI-60 screen (SRB, 48 h); settings: Homo sapiens
[20] = system: EKVX (NSC lung cancer); test: NCI-60 screen (SRB, 48 h); settings: Homo sapiens
[21] = system: HOP-62 (NSC lung cancer); test: NCI-60 screen (SRB, 48 h); settings: Homo sapiens
[22] = system: NCI-H226 (NSC lung cancer); test: NCI-60 screen (SRB, 48 h); settings: Homo sapiens
[23] = system: Renal Cancer subpanel; test: NCI-60 screen, subpanel; settings: Homo sapiens
[24] = system: panel of approximately 60 cancer cell lines; test: NCI-60 screen (SRB, 48 h), full panel
[25] = system: CAKI-1 (Renal cancer); test: NCI-60 screen (SRB, 48 h); settings: Homo sapiens
[26] = system: SF-295 (CNS cancer); test: NCI-60 screen (SRB, 48 h); settings: Homo sapiens
[27] = system: COLO 205 (Colon cancer); test: NCI-60 screen (SRB, 48 h)

## CC1(C)CC[C@]2(CO)CC[C@]3(C)C(=CC[C@@H]4[C@@]5(C)CCCNC(C)(C)[C@@H]5CC[C@]43C)[C@@H]2C1 [Compound 3, azepanoerythrodiol]
[1]; MOLT-4
  GI50: 2.5 µM
[1]; MOLT-4, read-out: LC50
  CC50: > 100 µM
[2]; HOP-92
  GI50: 1.36 µM
[2]; HOP-92, 48 h, read-out: TGI
  IC (TGI): 30.7 µM
[2]; HOP-92, read-out: LC50
  CC50: 6.92 µM
[3]
  GI50: 4.08 µM
[3]; 48 h, read-out: TGI
  IC (TGI): 16.3 µM
[3]; read-out: LC50
  CC50: 48.6 µM
[4]; 48 h, read-out: TGI MG_MID
  IC (TGI): 3.3 µM
[4]; read-out: GI50 MG_MID
  GI50: 1.99 µM
[4]; read-out: LC50 MG_MID
  CC50: 12.4 µM
[5]; UO-31
  GI50: 10.5 µM
[5]; UO-31, 48 h, read-out: TGI
  IC (TGI): 25.5 µM
[5]; UO-31, read-out: LC50
  CC50: 62.1 µM
[6]; OVCAR-5
  GI50: 11.9 µM
[6]; OVCAR-5, 48 h, read-out: TGI
  IC (TGI): 24.6 µM
[6]; OVCAR-5, read-out: LC50
  CC50: 51 µM
[7]; DU-145
  GI50: 2.3 µM
[7]; DU-145, 48 h, read-out: TGI
  IC (TGI): 4.7 µM
[7]; DU-145, read-out: LC50
  CC50: 9.61 µM
[8]; SW-620
  GI50: 1.91 µM
[8]; SW-620, 48 h, read-out: TGI
  IC (TGI): 4 µM
[8]; SW-620, read-out: LC50
  CC50: 8.35 µM
[9]
  GI50: 3.69 µM
[9]; 48 h, read-out: TGI
  IC (TGI): 10.3 µM
[9]; read-out: LC50
  CC50: 36 µM
[10]; 48 h, read-out: TGI MG_MID
  IC (TGI): 19.1 µM
[10]; read-out: GI50 MG_MID
  GI50: 7.75 µM
[10]; read-out: LC50 MG_MID
  CC50: 45.6 µM
[11]; SNB-75
  GI50: 9.84 µM
[11]; SNB-75, 48 h, read-out: TGI
  IC (TGI): 2.17 µM
[11]; SNB-75, read-out: LC50
  CC50: 47.1 µM
[12]; OVCAR-3
  GI50: 1.96 µM
[12]; OVCAR-3, 48 h, read-out: TGI
  IC (TGI): 3.84 µM
[12]; OVCAR-3, read-out: LC50
  CC50: 7.52 µM
[13]; 48 h, read-out: TGI MG_MID
  IC (TGI): 4.13 µM
[13]; read-out: GI50 MG_MID
  GI50: 6.53 µM
[13]; read-out: LC50 MG_MID
  CC50: 40 µM
[14]; Homo sapiens, M14
  GI50: 2.04 µM
[14]; Homo sapiens, M14, 48 h, read-out: TGI
  IC (TGI): 3.87 µM
[14]; Homo sapiens, M14, read-out: LC50
  CC50: 7.34 µM
[14]; M14, 1 dose 10 µM
  Growth % of the Most Sensitive Cell Lines: −82.21%
[15]; Homo sapiens, SK-MEL-28
  GI50: 1.7 µM
[15]; Homo sapiens, SK-MEL-28, 48 h, read-out: TGI
  IC (TGI): 3.14 µM
[15]; Homo sapiens, SK-MEL-28, read-out: LC50
  CC50: 5.78 µM
[15]; SK-MEL-28, 1 dose 10 µM
  Growth % of the Most Sensitive Cell Lines: −81.53%
[16]
  GI50: 2.41 µM
[16]; 48 h, read-out: TGI
  IC (TGI): 8.96 µM
[16]; read-out: LC50
  CC50: > 100 µM
[17]; HT-29
  GI50: 1.59 µM
[17]; HT-29, 48 h, read-out: TGI
  IC (TGI): 3.62 µM
[17]; HT-29, read-out: LC50
  CC50: 8.23 µM
[18]; A498
  GI50: 16.7 µM
[18]; A498, 48 h, read-out: TGI
  IC (TGI): 38.1 µM
[18]; A498, read-out: LC50
  CC50: 86.7 µM
[19]; SK-OV-3
  GI50: 14.1 µM
[19]; SK-OV-3, 48 h, read-out: TGI
  IC (TGI): 28.9 µM
[19]; SK-OV-3, read-out: LC50
  CC50: 59.2 µM
[20]
  GI50: 4.04 µM
[20]; 48 h, read-out: TGI
  IC (TGI): 20.1 µM
[20]; read-out: LC50
  CC50: > 100 µM
[21]; HOP-62
  GI50: 5.89 µM
[21]; HOP-62, 48 h, read-out: TGI
  IC (TGI): 20.4 µM
[21]; HOP-62, read-out: LC50
  CC50: 58.9 µM
[22]; NCI-H226
  GI50: 1.13 µM
[22]; NCI-H226, 48 h, read-out: TGI
  IC (TGI): 28.5 µM
[22]; NCI-H226, read-out: LC50
  CC50: 71.8 µM
[23]; 48 h, read-out: TGI MG_MID
  IC (TGI): 17.4 µM
[23]; read-out: GI50 MG_MID
  GI50: 5.94 µM
[23]; read-out: LC50 MG_MID
  CC50: 49.7 µM
[24]; 1 dose 10 µM
  Positive Cytostatic Effect (cell lines with percent growth 0 to 50 / total): 20/57
  Positive Cytotoxic Effect (cell lines with percent growth < 0 / total): 19/57
  number of cancer cell lines the compound was active against: 30 cell lines
[24]; Homo sapiens, 48 h, read-out: Mean Growth, %
  activity at 10 µM: 18.9%
[24]; Homo sapiens, 48 h, read-out: Range of Growth, %
  activity at 10 µM: -88.4 to 89.3%
[24]; Homo sapiens, 48 h, read-out: TGI MG_MID60, average over all cell lines
  IC (TGI): 15.5 µM
[24]; Homo sapiens, read-out: GI50 MG_MID60
  GI50: 3.83 µM
[24]; Homo sapiens, read-out: GI50 against all human tumor cell lines
  GI50: < 10 µM
[24]; Homo sapiens, read-out: GI50 against the most sensitive cell lines
  GI50: 0.2 to 0.94 µM
[24]; Homo sapiens, read-out: LC50 MG_MID60, average over all cell lines
  CC50: 32 µM
[24]; MG_MID60/subpanel MG_MID
  selectivity indexes at TGI level (subpanels): 3.59–4.69
[25]; CAKI-1
  GI50: 3.05 µM
[25]; CAKI-1, 48 h, read-out: TGI
  IC (TGI): 13.7 µM
[25]; CAKI-1, read-out: LC50
  CC50: 53.6 µM
[26]; SF-295
  GI50: 1.77 µM
[26]; SF-295, 48 h, read-out: TGI
  IC (TGI): 3.62 µM
[26]; SF-295, read-out: LC50
  CC50: 7.4 µM
[27]; COLO 205, 1 dose 10 µM
  Growth % of the Most Sensitive Cell Lines: −88.44%
[27]; Homo sapiens, COLO 205
  GI50: 1.83 µM
[27]; Homo sapiens, COLO 205, 48 h, read-out: TGI
  IC (TGI): 3.25 µM
[27]; Homo sapiens, COLO 205, read-out: LC50
  CC50: 5.77 µM

— publication PMC7914897, “Cytotoxic Potential of a-Azepano- and 3-Amino-3,4-SeCo-Triterpenoids” (International Journal of Molecular Sciences, 2021)
